# Experimental data taken from publication PMC7578299, “The antiviral effects of baloxavir marboxil against influenza A virus infection in ferrets” (Influenza and Other Respiratory Viruses, 2020).
# “And” between values parts separate entries of the source, which are not always exact repeats. Equal entries are not always repeated.
# How the values were obtained:
# Assay type in all cases: in vitro ADME
# [1] = Metabolic stability in liver microsomes, monkey; conditions: monkey; for % Residual in liver microsome: 0.5 mg/mL, 2 μmol/L, 37°C, mean of duplicates; for % Residual in liver microsome Individual value: duplicates
# Description: (§1) Liver microsomes were prepared from ferrets, rats, dogs, and monkeys, as previously described. ^28 Human liver microsomes were obtained from Sekisui‐XenoTech, LLC and pooled (n = 15). Metabolic stability of the compounds in liver microsomes was tested in duplicate. Oseltamivir and cefcapene pivoxil were used as reference compounds. Liver microsomes at 0.5 mg/mL concentration (final volume of 0.2 mL) were incubated in Tris‐HCl buffer (pH 7.4), containing 50 mmol/L Tris‐HCl, 150 mmol/L KCl, 10 mmol/L MgCl2. The hydrolysis reaction was initiated by applying the test compound solution (final concentration 2 μmol/L). After incubation for 10, 20, and 30 minutes at 37°C, the hydrolysis was terminated by the addition of twofold volume of ice‐cold acetonitrile/methanol (1:1, v/v). Samples were centrifuged at 3000 rpm for 10 minutes prior to LC‐MS/MS analysis of compounds in the supernatants.
# [2] = Metabolic stability in liver microsomes, dog; conditions: for % Residual in liver microsome: 0.5 mg/mL, 2 μmol/L, 37°C, mean of duplicates; for % Residual in liver microsome Individual value: duplicates
# Description: as §1
# [3] = Metabolic stability in liver microsomes, human; conditions: for % Residual in liver microsome: 0.5 mg/mL, 2 μmol/L, 37°C, mean of duplicates; for % Residual in liver microsome Individual value: duplicates
# Description: as §1
structure (smiles),measurement,setting,value
"COC(=O)OCOc1c2n(ccc1=O)N([C@@H]1c3ccccc3SCc3c1ccc(F)c3F)[C@@H]1COCCN1C2=O [BXM, Baloxavir marboxil]",% Residual in liver microsome,[1]; 10 min,0.0%
same,% Residual in liver microsome,[1]; 20 min,0.0%
same,% Residual in liver microsome,[1]; 30 min,0.0%
same,% Residual in liver microsome Individual value,[1]; 10 minutes,0.0%
same,% Residual in liver microsome Individual value,[1]; 20 minutes,0.0%
same,% Residual in liver microsome Individual value,[1]; 30 minutes,0.0%
same,% Residual in liver microsome,[2]; 10 min,0.1%
same,% Residual in liver microsome,[2]; 20 min,0.1%
same,% Residual in liver microsome,[2]; 30 min,0.0%
same,% Residual in liver microsome Individual value,[2]; 10 minutes,0.1%
same,% Residual in liver microsome Individual value,[2]; 20 minutes,0.1%
same,% Residual in liver microsome Individual value,[2]; 30 minutes,0.0% and 0.1%
same,% Residual in liver microsome,[3]; 10 min,8.2%
same,% Residual in liver microsome,[3]; 20 min,0.3%
same,% Residual in liver microsome,[3]; 30 min,0.0%
same,% Residual in liver microsome Individual value,[3]; 10 minutes,8.4% and 8.0%
same,% Residual in liver microsome Individual value,[3]; 20 minutes,0.3% and 0.2%
same,% Residual in liver microsome Individual value,[3]; 30 minutes,0.0%
